tested on: Human recombinant GST-PI3K; test: PI3K induced-lipid phosphorylation, neomycin-SPA scintillation proximity assay; type: biochemical; conditions: Human recombinant GST-PI3K, SPA
From the text: The efficacy of compounds of the invention in inhibiting the PI3K induced-lipid phosphorylation may be tested in the following binding assay. The assay combines the scintillation proximity assay technology (SPA, Amersham) with the capacity of neomycin (a polycationic antibiotic) to bind phospholipids with high affinity and specificity. The Scintillation Proximity Assay is based on the properties of weakly emitting isotopes (such as ^3H, ^125I, ^33P). Coating SPA beads with neomycin allows the detection of phosphorylated lipid substrates after incubation with recombinant PI3K and radioactive ATP in the same well, by capturing the radioactive phospholipids to the SPA beads through their specific binding to neomycin.
To a 96 wells MTP containing 10 μL of the test compound of Formula (I) (solubilized in 10% DMSO; […]), the following assay components are added: 1) 10 μL of lipid micelles 2) 20 μL of Kinase buffer ([^33P]γATP162 μM/300 nCi, MgCl2 2.5 mM, DTT 2.5 mM, Na3VO4 25 uM in Hepes 40 mM, pH 7.4) and 3) 10 μL (100 ng) of Human recombinant GST-PI3K (in Hepes 40 mM, pH 7.4, ethylenglycol 4%). After incubation at room temperature for 120 minutes, with gentle agitation, the reaction is stopped by addition of 200 μL of a solution containing 250 μg of neomycin-coated PVT SPA beads, ATP 60 mM and EDTA 6.2 mM in PBS. The assay is further incubated at room temperature for 60 minutes with gentle agitation to allow binding of phospholipids to neomycin-SPA beads. After precipitation of the neomycin-coated PVT SPA beads for 5 minutes at 1500×g, radioactive PtdIns(3)P is quantified by scintillation counting in a Wallac MicroBeta™ plate counter.
The values indicated in Table I below refer to the IC50 (μM) with respect to PI3K, i.e. the amount necessary to achieve 50% inhibition of said target. Said values show a considerable inhibitory potency of quinoxaline compounds with regard to PI3K.

| IC50 [nM] | SMILES |
| --- | --- |
| 350 | COc1ccc(CCS(C)(=O)=O)c(Nc2nc3ccccc3nc2NS(=O)(=O)CCCS(C)(=O)=O)c1 [Example 59, N-[3-({5-Methoxy-2-[2-(methylsulfonyl)ethyl]phenyl}amino)quinoxalin-2-yl]-3-(methylsulfonyl)propane-1-sulfonamide] |
| 84 | COc1ccc(CCS(C)(=O)=O)c(Nc2nc3ccccc3nc2NS(=O)(=O)c2cn(C)cn2)c1 [Example 40, N-[3-({5-Methoxy-2-[2-(methylsulfonyl)ethyl]phenyl}amino)quinoxalin-2-yl]-1-methyl-1H-imidazole-4-sulfonamide] |
| 120 | COc1ccc(CCCO)c(Nc2nc3ccccc3nc2NS(=O)(=O)CCCS(C)(=O)=O)c1 [Example 60, N-(3-{[2-(3-Hydroxypropyl)-5-methoxyphenyl]amino}quinoxalin-2-yl)-3-(methylsulfonyl)propane-1-sulfonamide] |
| 88 | CCS(=O)(=O)Nc1nc2ccccc2nc1Nc1cc(OC)ccc1CCS(C)(=O)=O [Example 51, N-[3-({5-Methoxy-2-[2-(methylsulfonyl)ethyl]phenyl}amino)quinoxalin-2-yl]ethanesulfonamide] |
| 59 | CCS(=O)(=O)Nc1nc2ccccc2nc1Nc1cc(OC)ccc1CCCO [Example 48, N-(3-{[2-(3-Hydroxypropyl)-5-methoxyphenyl]amino}quinoxalin-2-yl)ethanesulfonamide] |
| 87 | COc1ccc(CCCO)c(Nc2nc3ccccc3nc2NS(=O)(=O)c2cn(C)c(CS(C)(=O)=O)n2)c1 [Example 76, N-(3-{[2-(3-Hydroxypropyl)-5-methoxyphenyl]amino}quinoxalin-2-yl)-1-methyl-2-[(methylsulfonyl)methyl]-1H-imidazole-4-sulfonamide] |
| 84 | COc1ccc(CCCO)c(Nc2nc3ccccc3nc2NS(=O)(=O)c2cn(C)c(CO)n2)c1 [Example 74, 2-(Hydroxymethyl)-N-(3-{[2-(3-hydroxypropyl)-5-methoxyphenyl]amino}quinoxalin-2-yl)-1-methyl-1H-imidazole-4-sulfonamide] |
| 26 | COc1ccc(CCCO)c(Nc2nc3ccccc3nc2NS(=O)(=O)C2CCNCC2)c1 [Example 99, N-(3-{[2-(3-Hydroxypropyl)-5-methoxyphenyl]amino}quinoxalin-2-yl)piperidine-4-sulfonamide] |
| 28 | COc1ccc(CCCO)c(Nc2nc3ccccc3nc2NS(=O)(=O)c2cn(C)c(CN(C)C)n2)c1 [Example 47, 2-[(Dimethylamino)methyl]-N-(3-{[2-(3-hydroxypropyl)-5-methoxyphenyl]amino}quinoxalin-2-yl)-1-methyl-1H-imidazole-4-sulfonamide] |
| 160 | COc1ccc(CCS(C)(=O)=O)c(Nc2nc3ccccc3nc2NS(=O)(=O)C(C)C)c1 [Example 52, N-[3-({5-Methoxy-2-[2-(methylsulfonyl)ethyl]phenyl}amino)quinoxalin-2-yl]propane-2-sulfonamide] |

The next lines start with the molecule.

| SMILES | IC50 [nM] |
| --- | --- |
| COc1ccc(CCS(C)(=O)=O)c(Nc2nc3ccccc3nc2NS(=O)(=O)c2cn(C)c(CN(C)C)n2)c1 [Example 65, 2-[(Dimethylamino)methyl]-N-[3-({5-methoxy-2-[2-(methylsulfonyl)ethyl]phenyl}amino)quinoxalin-2-yl]-1-methyl-1H-imidazole-4-sulfonamide] | 87 |
| COc1ccc(C(C)C)c(Nc2nc3ccccc3nc2NS(=O)(=O)c2cn(C)cn2)c1 [Example 30, N-{3-[(2-Isopropyl-5-methoxyphenyl)amino]quinoxalin-2-yl}-1-methyl-1H-imidazole-4-sulfonamide] | 200 |
| COc1ccc(CC2CCS(=O)(=O)CC2)c(Nc2nc3ccccc3nc2NS(=O)(=O)c2cn(C)cn2)c1 [Example 26, N-[3-({2-[(1,1-dioxidotetrahydro-2H-thiopyran-4-yl)methyl]-5-methoxyphenyl}amino)auinoxalin-2-yl]-1-methyl-1H-imidazole-4-sulfonamide] | 30 |
| COc1ccc(CC2CCCCC2)c(Nc2nc3ccccc3nc2NS(=O)(=O)c2ccc(CN(C)C)cc2)c1 [Example 87, N-(3-{[2-(cyclohexylmethyl)-5-methoxyphenyl]amino}quinoxalin-2-yl)-4-[(dimethylamino)methyl]benzenesulfonamide] | 760 |
| COc1cc(CN2CCN(C)CC2)cc(Nc2nc3ccccc3nc2NS(=O)(=O)c2cccnc2)c1 [Example 92, N-[3-({3-methoxy-5-[(4-methylpiperazin-1-yl)methyl]phenyl}amino)quinoxalin-2-yl]pyridine-3-sulfonamide] | 970 |
| COc1ccc(CC2C[C@H]3CC[C@@H](C2)N3C)c(Nc2nc3ccccc3nc2NS(=O)(=O)c2cn(C)cn2)c1 (stereo partly drawn) [Example 15, N-{3-[(5-methoxy-2-{[(1R,5S)-8-methyl-8-azabicyclo[3.2.1]oct-3-yl]methyl}phenyl)amino]quinoxalin-2-yl}-1-methyl-1H-imidazole-4-sulfonamide] | 110 |
| COc1ccc(CN2CCOCC2)c(Nc2nc3ccccc3nc2NS(=O)(=O)c2cccnc2)c1 [Example 83, N-(3-{[5-methoxy-2-(morpholin-4-ylmethyl)phenyl]amino}quinoxalin-2-yl)pyridine-3-sulfonamide] | 72 |
| COc1ccc(CCO)c(Nc2nc3ccccc3nc2NS(=O)(=O)c2ccc(OCCO)cc2)c1 [Example 94] | 34 |
| COc1ccc(CC2CCCC2)c(Nc2nc3ccccc3nc2NS(=O)(=O)c2cn(C)cn2)c1 [Example 24, N-(3-{[2-(cyclopentylmethyl)-5-methoxyphenyl]amino}quinoxalin-2-yl)-1-methyl-1H-imidazole-4-sulfonamide] | 180 |
| COc1ccc(CCO)c(Nc2nc3ccccc3nc2NS(=O)(=O)c2ccc(C(=O)N(C)C)cc2)c1 [Example 32, 4-{[(3-{[2-(2-Hydroxyethyl)-5-methoxyphenyl]amino}quinoxalin-2-yl)amino]sulfonyl}-N,N-dimethylbenzamide] | 250 |
| COc1ccc(CCO)c(Nc2nc3ccccc3nc2NS(=O)(=O)c2ccc(C#N)cc2)c1 [Example 34] | 22 |
| COc1ccc(CC2CCSCC2)c(Nc2nc3ccccc3nc2NS(=O)(=O)c2cn(C)cn2)c1 [Example 25, N-(3-{[5-methoxy-2-(tetrahydro-2H-thiopyran-4-ylmethyl)phenyl]amino}quinoxalin-2-yl)-1-methyl-1H-imidazole-4-sulfonamide] | 100 |
| COc1ccc(CCO)c(Nc2nc3ccccc3nc2NS(=O)(=O)c2ccc(C)[n+]([O-])c2)c1 [Example 33, N-(3-{[2-(2-Hydroxyethyl)-5-methoxyphenyl]amino}quinoxalin-2-yl)-6-methylpyridine-3-sulfonamide 1-oxide] | 106 |
| COCCc1ccc(OC)cc1Nc1nc2ccccc2nc1NS(=O)(=O)C1CCNCC1 [Example 100, N-(3-{[5-Methoxy-2-(2-methoxyethyl)phenyl]amino}quinoxalin-2-yl)piperidine-4-sulfonamide] | 98 |
| COc1ccc(C(=O)O)c(Nc2nc3ccccc3nc2NS(=O)(=O)c2cccnc2)c1 [Example 98, 4-methoxy-2-({3-[(pyridin-3-ylsulfonyl)amino]quinoxalin-2-yl}amino)benzoic acid] | 4680 |
| COc1cc(CN(C)C)cc(Nc2nc3ccccc3nc2NS(=O)(=O)c2cn(C)cn2)c1 [Example 95, N-[3-({3-[(Dimethylamino)methyl]-5-methoxyphenyl}amino)quinoxalin-2-yl]-1-methyl-1H-imidazole-4-sulfonamide] | 1100 |
| COc1ccc(C(CO)CO)c(Nc2nc3ccccc3nc2NS(=O)(=O)c2cn(C)cn2)c1 [Example 29, N-[3-({2-[2-Hydroxy-1-(hydroxymethyl)ethyl]-5-methoxyphenyl}amino)quinoxalin-2-yl]-1-methyl-1H-imidazole-4-sulfonamide] | 550 |

same assay, conditions: at 20 μM

| SMILES | PI3K inhibition at single concentration [% at 20 μM] |
| --- | --- |
| COc1ccc(CC2CCCCC2)c(Nc2nc3ccccc3nc2NS(C)(=O)=O)c1 [Example 21, N-(3-{[2-(cyclohexylmethyl)-5-methoxyphenyl]amino}quinoxalin-2-yl)methanesulfonamide] | 68 |

Source: patent US8614215B2, “Quinoxaline inhibitors of phosphoinositide-3-kinases (PI3Ks)” (Merck Serono SA, priority 2007, dated 2013)
